Experimental findings from US20240299266A1, “FRAGRANCE COMPOSITIONS WITH MOISTURIZING BENEFITS” (Firmenich SA, priority 2021, published 2024) are described below.

The assay is described as follows: TEWL (trans-epidermal water loss) measurement on in-vitro skin model. The note with it: 50 μL applied on hydrated artificial skin membrane on a Franz Cell, Vapometer, TEWL during 60 min, normalized to pre-treatment reference (100%). The text has this:
The present inventors have investigated the moisturizing potential of perfume ingredients. To perform this assessment they used a model called a skin replicating surface, and measured the transepidermal water loss (TEWL) before and after the deposit of a sample of the perfume ingredient. This is measure of the moisturizing activity of the perfume ingredient.
The moisturizing activity of a fragrance component may be calculated as follows. • a step of controlled deposition of a fragrance component upon an skin replicating surface, • a step of measurement of a quantity of evaporated water from the skin replicating surface or of remaining water on the skin replicating surface after the deposition of the fragrance component at different measurement times, • a step of reduction of the water evaporation rate calculation depending on the measured evaporated or remaining water quantities measured, • a step of moisturizing activity calculation as a function of the water evaporation rate measured.
The skin replicating surface comprising (i) a hydrogel membrane layer comprising a water permeable substrate supporting a biopolymer, and (ii) a stratum corneum mimic layer.
The hydrogel membrane composition should include a knitted cotton piece topped by a hydrogel containing biopolymer (gelatin) able to form a hydrogel with water and glycerol.
The stratum corneum mimic layer can be a Vitro-Corneum substrate (product of IMS inc.)
Before measurements, the hydrogel membrane and the Vitro-Corneum substrate should be separately hydrated in a hydration chamber and then, assembled. The Vitro-Corneum substrate is made of proteins and lipids and mimics the thickness, the visco-elasticity, the chemical reactivity and the surface properties of human stratum corneum. The hydrogel allows to keep the Vitro-Corneum substrate hydrated.
Hydrogel is prepared by mixing gelatin, glycerol and water at a water bath in the following composition. Preferably around 50% of the hydrogel is glycerol and around 5% is gelatin completed to 100% with water. This is added to a supporting surface and allowed to set.
Both part of the artificial skin model needs to be hydrated before being assembled. Hydrogel membranes and the Vitro-Corneum substrate (2×2 cm) are placed into an hydration chamber containing the glycerol/water wetting solution. Hydrogel membranes are hydrated and Vitro-Corneum substrates are hydrated. When the hydration is complete, the Vitro-Corneum substrate is deposited on the hydrogel. The final skin model is now ready for experiments.
The TEWL (Trans-Epidermal Water Loss) measurements were performed with a Vapometer and Moisturemeter, product of Delfin Technologies (Finland).
Hydrated artificial skin membrane is placed on the top of a Franz Cell, 50 μL of the product to be tested is applied on the membrane and spread manually with a finger protected by a glove. The Vapometer measures the water evaporation rate thanks to sensitive humidity sensors mounted in a cylindrical measurement chamber at the core of the device. During the measurement, the chamber is closed by the support and unaffected by ambient airflows. The water evaporation rate (g/m^2 h) is calculated from the increase of relative humidity in function of time. Ambient temperature and humidity are recorded using an external room sensor.
For our TEWL measurement method, each experiment lasts one hour, and several measurements were taken at different time points during this period.
All the experiments were compared to a reference system: hydrated artificial skin model, pre-treatment, without raw material application. […] For each experiment, the evaporation rate was measured before the ingredient application and the TEWL results were normalized by its value. With the normalization, the reference corresponds to 100% of water evaporation.

“Also recorded” adds a separate entry of the source.

Regarding `C=C(C)C1CC=C(C)CC1` (stereo not shown) [1-methyl-4-(1-methylethenyl)-cyclohexene], the “moisturizing (reduction of water evaporation rate / TEWL after deposit of the sample)” value was “have moisturizing effects; also recorded: suitable moisturizing potential”.
Regarding `O=C1CCCCCCCCCCCCCCO1` [oxacyclohexadecan-2-one], the “moisturizing (reduction of water evaporation rate / TEWL after deposit of the sample)” value is “suitable moisturizing potential”. In addition, the “moisturizing (reduction of water evaporation rate / TEWL after deposit of the sample)” value (listed as Oxacyclohexadecan-2-one) is given as “have moisturizing effects”.
For the molecule `CC1/C=C/CCCCCCCCCCC(=O)C1` (racemic) [(+−)-(4e)-3-methyl-4-cyclopentadecen-1-one], the “moisturizing (reduction of water evaporation rate / TEWL after deposit of the sample)” value is on record as “suitable moisturizing potential”.
With `CC(=O)OCc1ccccc1` [benzyl acetate], the “moisturizing (reduction of water evaporation rate / TEWL after deposit of the sample)” value was “suitable moisturizing potential”. Also, the “moisturizing (reduction of water evaporation rate / TEWL after deposit of the sample)” value (listed as Benzyl acetate) is given as “have moisturizing effects”.
`C=CCCC(=O)C1=CCCC(C)(C)C1` [1-(5,5-dimethyl-1-cyclohexen-1-yl)-4-penten-1-one]: the “moisturizing (reduction of water evaporation rate / TEWL after deposit of the sample)” value was “suitable moisturizing potential”.
Turning to `CCCCC[C@@H]1C(=O)CCCC[C@H]1CC(=O)OC` [(+)-methyl (1s)-trans-3-oxo-2-pentyl-1-cycloheptaneacetate], the “moisturizing (reduction of water evaporation rate / TEWL after deposit of the sample)” value is “suitable moisturizing potential”. Further, the “moisturizing (reduction of water evaporation rate / TEWL after deposit of the sample)” value (listed as Cycloheptaneacetic acid, 3-oxo-2-pentyl-) is recorded as “have moisturizing effects”.
For `CC(=O)[C@]1(C)CC2=C(CCCC2(C)C)C[C@H]1C` (racemic) [1-((2rs,3rs)-2,3,8,8-tetramethyl-1,2,3,4,5,6,7,8-octahydronaphthalen-2-yl)ethenone], the “moisturizing (reduction of water evaporation rate / TEWL after deposit of the sample)” value is on record as “suitable moisturizing potential”.
Still for that read-out and setting: under “(3RS,3aRS,6SR,7aSR)-3,6-dimethylhexahydro-1-benzofuran-2(3H)-one (A)+(3RS,3aSR,6RS,7aRS)-3,6-dimethylhexahydro-1-benzofuran-2(3H)-one (B)” stands “have moisturizing effects; also recorded: suitable moisturizing potential”; under `CCC(=O)OCC(C)(C)O[C@@H](C)[C@@H]1CCCC(C)(C)C1` [(+)-2-{(1S)-1-[(1R)-3,3-dimethylcyclohexyl]ethoxy}-2-methylpropyl propionate], “suitable moisturizing potential”.
`CO[C@@]1(C)CC[C@@]23C[C@@H]1C(C)(C)[C@@H]2CC[C@H]3C` (racemic) [(+−)-8-methoxycedrane]: the “moisturizing (reduction of water evaporation rate / TEWL after deposit of the sample)” value is on record as “have moisturizing effects; also recorded: suitable moisturizing potential”.
On the same count and under the same terms, the value for `CC1(C)CCC[C@]2(C)[C@H]3CCO[C@]3(C)CC[C@@H]12` [(3ar,5as,9as,9br)-3a,6,6,9a-tetramethyldodecahydronaphtho[2,1-b]furan] was “suitable moisturizing potential”.
Same read-out and setting: under “1-oxa-12-cyclohexadecen-2-one (a)+1-oxa-13-cyclohexadecen-2-one” stands “suitable moisturizing potential”; under `CCC(=O)OCC(=O)O[C@@H](C)[C@@H]1CCCC(C)(C)C1` [2-{(1S)-1-[(1R)-3,3-dimethylcyclohexyl]ethoxy}-2-oxoethyl propionate], “have moisturizing effects”.
